According to paper doi:10.1101/2024.08.19.608619, “Discovery of potent SARS-CoV-2 nsp3 macrodomain inhibitors uncovers lack of translation to cellular antiviral response” (bioRxiv, 2024):
Read-outs that look alike come from different tables or passages of the source.

Legend:
Experiment in all cases: biochemical
Parameters in all cases: In vitro kinase panel profiling, per cent remaining kinase activity at 10 uM
Lyn(h) = Lyn(h) (Homo sapiens, UniProt P07948); settings: atp_concentration=70, read-out: % of control remaining
Description: (§1) We derisk potential for off-target activity by profiling the compound in a CEREP panel, a standard secondary pharmacology assessment, as well as a kinase panel to derisk a potential hinge-binding motif in our leads, and a PARP panel to derisk activity against human […]. Reassuringly, the compounds are selective, with the only off-targets being moderate human CHRM2 and KOR receptors activity associated with ASAP-0011198.

ROCK-I(h) = biological target: T1, ROCK-I(h) (Homo sapiens, UniProt Q13464); settings: atp_concentration=70, read-out: % of control remaining
T1 construct: gene ROCK1
Description: as §1

LOK(h) = biological target: T2, LOK(h) (Homo sapiens, UniProt O94804); settings: atp_concentration=120, read-out: % of control remaining
T2 construct: gene STK10
Description: as §1

Aurora-A(h) = biological target: T3, Aurora-A(h) (Homo sapiens, UniProt O14965); settings: atp_concentration=15, read-out: % of control remaining
T3 construct: gene AURKA
T3 sequence (O14965 1-403): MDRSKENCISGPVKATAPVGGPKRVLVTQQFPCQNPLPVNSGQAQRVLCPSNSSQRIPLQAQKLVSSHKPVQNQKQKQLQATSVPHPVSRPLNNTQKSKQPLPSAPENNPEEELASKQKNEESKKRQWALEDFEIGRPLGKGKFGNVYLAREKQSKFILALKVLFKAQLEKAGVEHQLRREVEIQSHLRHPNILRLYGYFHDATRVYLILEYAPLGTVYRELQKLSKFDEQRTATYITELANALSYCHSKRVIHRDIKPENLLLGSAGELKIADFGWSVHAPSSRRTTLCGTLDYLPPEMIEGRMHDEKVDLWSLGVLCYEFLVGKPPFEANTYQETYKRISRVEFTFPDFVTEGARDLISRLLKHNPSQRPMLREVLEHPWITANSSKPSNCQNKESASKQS
Description: as §1

IGF-1R(h) = biological target: T4, IGF-1R(h) (Homo sapiens, UniProt P08069); settings: atp_concentration=200, read-out: % of control remaining
T4 construct: gene IGF1R
Description: as §1

CK1γ1(h) = biological target: T5, CK1γ1(h) (Homo sapiens, UniProt Q9HCP0); settings: atp_concentration=15, read-out: % of control remaining
T5 construct: gene CSNK1G1
Description: as §1

MSK2(h) = biological target: T6, MSK2(h) (Homo sapiens, UniProt O75676); settings: atp_concentration=45, read-out: % of control remaining
T6 construct: gene RPS6KA4
Description: as §1

mTOR(h) = mTOR(h) (Homo sapiens, UniProt P42345); settings: atp_concentration=70, read-out: % of control remaining
Description: as §1

[1] = biological target: T7, PI3 Kinase (p110δ/p85α)(h) (Homo sapiens, UniProt O00329); settings: atp_concentration=200, read-out: % of control remaining
T7 construct: gene PIK3CD
Description: as §1

Rse(h) = biological target: T8, Rse(h) (Homo sapiens, UniProt Q06418); settings: atp_concentration=45, read-out: % of control remaining
T8 construct: gene TYRO3
T8 sequence (Q06418 1-890): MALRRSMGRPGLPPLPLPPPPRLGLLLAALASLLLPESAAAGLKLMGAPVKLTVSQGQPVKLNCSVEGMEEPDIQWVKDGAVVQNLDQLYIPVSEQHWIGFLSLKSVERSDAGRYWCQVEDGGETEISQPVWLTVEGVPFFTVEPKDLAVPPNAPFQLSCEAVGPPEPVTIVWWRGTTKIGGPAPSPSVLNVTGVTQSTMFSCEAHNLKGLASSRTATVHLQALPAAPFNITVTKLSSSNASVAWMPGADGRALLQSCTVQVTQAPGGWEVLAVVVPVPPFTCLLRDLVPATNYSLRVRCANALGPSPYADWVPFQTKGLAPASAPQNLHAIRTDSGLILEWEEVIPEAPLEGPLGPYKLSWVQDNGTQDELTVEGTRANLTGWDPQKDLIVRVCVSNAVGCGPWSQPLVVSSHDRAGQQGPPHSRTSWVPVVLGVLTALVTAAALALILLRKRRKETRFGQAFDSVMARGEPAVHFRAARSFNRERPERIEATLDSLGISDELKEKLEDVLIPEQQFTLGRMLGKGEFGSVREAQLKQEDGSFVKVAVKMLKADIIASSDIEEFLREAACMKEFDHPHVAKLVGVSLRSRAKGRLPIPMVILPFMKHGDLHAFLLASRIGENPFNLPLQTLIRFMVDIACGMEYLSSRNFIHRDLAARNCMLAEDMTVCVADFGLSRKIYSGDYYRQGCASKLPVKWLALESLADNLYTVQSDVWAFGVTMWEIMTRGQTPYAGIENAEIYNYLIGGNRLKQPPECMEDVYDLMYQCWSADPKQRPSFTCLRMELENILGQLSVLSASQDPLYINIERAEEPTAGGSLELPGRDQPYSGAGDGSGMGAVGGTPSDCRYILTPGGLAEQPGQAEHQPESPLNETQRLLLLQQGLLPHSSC
Description: as §1

T6 sequence (O75676 whole entry): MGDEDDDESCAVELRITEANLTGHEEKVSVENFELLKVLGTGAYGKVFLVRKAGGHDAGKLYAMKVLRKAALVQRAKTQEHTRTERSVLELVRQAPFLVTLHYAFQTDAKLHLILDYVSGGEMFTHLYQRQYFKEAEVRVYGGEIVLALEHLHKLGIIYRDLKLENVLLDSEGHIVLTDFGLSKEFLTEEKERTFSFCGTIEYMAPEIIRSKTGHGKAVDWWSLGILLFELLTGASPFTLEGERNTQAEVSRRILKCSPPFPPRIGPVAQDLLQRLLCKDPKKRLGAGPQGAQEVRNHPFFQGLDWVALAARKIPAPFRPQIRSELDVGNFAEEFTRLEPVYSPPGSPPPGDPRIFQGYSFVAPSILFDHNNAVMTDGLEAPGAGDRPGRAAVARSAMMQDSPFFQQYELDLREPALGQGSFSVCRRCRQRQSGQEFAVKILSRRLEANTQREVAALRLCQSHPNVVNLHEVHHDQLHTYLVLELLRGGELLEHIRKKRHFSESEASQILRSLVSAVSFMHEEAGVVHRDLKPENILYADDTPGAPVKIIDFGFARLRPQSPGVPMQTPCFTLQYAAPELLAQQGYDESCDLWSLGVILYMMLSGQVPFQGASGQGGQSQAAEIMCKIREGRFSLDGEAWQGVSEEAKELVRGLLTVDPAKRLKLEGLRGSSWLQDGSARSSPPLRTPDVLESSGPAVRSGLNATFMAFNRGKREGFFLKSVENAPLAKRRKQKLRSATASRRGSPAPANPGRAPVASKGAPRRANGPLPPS
Sequence of Lyn(h) (P07948 whole entry): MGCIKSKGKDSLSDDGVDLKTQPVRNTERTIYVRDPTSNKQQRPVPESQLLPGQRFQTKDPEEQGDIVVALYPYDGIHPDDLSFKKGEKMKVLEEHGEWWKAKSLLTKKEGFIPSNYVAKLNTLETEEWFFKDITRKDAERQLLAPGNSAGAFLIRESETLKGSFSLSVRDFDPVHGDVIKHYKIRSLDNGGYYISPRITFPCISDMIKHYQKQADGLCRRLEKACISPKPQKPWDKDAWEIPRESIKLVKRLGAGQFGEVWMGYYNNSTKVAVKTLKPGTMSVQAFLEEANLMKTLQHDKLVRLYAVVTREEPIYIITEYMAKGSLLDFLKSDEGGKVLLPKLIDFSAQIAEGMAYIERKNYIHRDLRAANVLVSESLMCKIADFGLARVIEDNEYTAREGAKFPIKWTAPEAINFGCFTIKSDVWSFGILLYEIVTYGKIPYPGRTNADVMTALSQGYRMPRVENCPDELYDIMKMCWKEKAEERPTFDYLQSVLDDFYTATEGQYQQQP
T5 sequence (Q9HCP0 whole entry): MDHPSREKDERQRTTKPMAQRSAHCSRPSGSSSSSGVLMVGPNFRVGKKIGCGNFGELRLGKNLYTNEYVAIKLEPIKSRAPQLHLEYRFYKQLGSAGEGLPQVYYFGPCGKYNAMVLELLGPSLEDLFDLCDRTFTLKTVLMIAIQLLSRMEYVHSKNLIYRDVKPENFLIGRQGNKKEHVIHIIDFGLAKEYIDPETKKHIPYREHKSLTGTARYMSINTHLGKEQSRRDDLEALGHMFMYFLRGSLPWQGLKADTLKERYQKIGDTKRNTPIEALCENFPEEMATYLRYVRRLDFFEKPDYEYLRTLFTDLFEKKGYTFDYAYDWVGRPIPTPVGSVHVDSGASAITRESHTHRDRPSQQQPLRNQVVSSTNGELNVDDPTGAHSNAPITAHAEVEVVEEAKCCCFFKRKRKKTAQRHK
T2 sequence (O94804 whole entry): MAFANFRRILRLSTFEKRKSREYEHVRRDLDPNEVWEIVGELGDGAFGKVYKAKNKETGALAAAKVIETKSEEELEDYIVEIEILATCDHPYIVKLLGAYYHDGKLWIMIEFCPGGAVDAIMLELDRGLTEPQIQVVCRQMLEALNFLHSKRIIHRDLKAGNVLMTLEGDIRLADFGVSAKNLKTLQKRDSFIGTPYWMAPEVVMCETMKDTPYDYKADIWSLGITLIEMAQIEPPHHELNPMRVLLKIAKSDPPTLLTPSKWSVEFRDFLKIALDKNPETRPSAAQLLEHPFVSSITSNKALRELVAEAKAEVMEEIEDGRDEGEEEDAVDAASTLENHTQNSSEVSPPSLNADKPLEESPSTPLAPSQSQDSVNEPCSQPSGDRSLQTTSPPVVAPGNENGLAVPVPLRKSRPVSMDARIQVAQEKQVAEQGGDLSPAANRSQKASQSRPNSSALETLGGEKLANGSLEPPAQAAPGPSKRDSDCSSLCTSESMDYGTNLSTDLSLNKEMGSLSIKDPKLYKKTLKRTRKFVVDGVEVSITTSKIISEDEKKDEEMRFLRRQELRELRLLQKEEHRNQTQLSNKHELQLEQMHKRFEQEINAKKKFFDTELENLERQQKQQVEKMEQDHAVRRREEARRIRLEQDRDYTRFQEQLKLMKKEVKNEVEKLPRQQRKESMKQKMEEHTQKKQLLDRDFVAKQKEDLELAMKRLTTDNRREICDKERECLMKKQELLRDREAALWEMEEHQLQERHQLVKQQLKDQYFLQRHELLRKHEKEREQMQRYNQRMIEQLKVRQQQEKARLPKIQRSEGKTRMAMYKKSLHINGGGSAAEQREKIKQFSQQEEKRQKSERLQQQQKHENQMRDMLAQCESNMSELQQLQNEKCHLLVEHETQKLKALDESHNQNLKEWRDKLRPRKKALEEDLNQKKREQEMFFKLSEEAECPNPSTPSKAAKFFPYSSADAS
T4 sequence (P08069 whole entry): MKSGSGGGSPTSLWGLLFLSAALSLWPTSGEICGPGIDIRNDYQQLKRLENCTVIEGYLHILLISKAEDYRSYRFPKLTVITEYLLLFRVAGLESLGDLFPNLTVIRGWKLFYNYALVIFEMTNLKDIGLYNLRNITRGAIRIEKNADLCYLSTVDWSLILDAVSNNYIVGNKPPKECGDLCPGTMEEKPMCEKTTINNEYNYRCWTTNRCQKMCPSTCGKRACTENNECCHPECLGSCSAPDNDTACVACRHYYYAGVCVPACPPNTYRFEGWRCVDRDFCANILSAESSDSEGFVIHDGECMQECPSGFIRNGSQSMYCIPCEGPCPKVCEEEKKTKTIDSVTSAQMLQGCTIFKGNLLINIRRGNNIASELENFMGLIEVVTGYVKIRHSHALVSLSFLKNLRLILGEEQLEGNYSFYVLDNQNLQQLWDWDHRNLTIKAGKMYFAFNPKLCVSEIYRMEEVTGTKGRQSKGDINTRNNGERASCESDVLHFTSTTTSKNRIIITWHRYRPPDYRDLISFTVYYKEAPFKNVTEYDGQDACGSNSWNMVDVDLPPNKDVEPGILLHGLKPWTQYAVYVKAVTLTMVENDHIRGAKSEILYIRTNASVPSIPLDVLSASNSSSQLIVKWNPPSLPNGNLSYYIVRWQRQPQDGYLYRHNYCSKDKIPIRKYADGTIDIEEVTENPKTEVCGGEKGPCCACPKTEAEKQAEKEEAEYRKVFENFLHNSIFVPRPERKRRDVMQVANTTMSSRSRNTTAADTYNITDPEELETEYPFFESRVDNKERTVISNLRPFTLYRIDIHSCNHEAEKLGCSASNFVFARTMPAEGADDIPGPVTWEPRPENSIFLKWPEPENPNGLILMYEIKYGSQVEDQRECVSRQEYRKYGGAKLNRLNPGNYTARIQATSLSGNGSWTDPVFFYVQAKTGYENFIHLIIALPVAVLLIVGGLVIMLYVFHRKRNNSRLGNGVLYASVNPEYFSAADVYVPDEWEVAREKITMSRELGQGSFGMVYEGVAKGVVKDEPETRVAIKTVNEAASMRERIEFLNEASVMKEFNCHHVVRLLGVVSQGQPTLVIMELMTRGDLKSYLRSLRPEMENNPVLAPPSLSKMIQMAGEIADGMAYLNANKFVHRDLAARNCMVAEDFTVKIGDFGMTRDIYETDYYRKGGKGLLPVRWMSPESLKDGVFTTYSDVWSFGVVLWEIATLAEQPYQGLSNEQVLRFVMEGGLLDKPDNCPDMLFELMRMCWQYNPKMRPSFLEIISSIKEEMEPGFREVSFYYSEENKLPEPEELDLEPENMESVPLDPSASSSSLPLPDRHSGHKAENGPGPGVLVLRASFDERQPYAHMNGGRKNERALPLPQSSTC

SMILES: COc1ccc([C@@H](Cc2nnn[nH]2)NC(=O)c2ncnc3[nH]ccc23)cc1 [ASAP-0008340]
- remaining activity at 10 µM (Lyn(h); batch_name=ASAP-0008340-001): 111%
- remaining activity at 10 µM (ROCK-I(h); batch_name=ASAP-0008340-001): 93%
- remaining activity at 10 µM (LOK(h); batch_name=ASAP-0008340-001): 96%
- remaining activity at 10 µM (Aurora-A(h); batch_name=ASAP-0008340-001): 71%
- remaining activity at 10 µM (IGF-1R(h); batch_name=ASAP-0008340-001): 106%
- remaining activity at 10 µM (CK1γ1(h); batch_name=ASAP-0008340-001): 95%
- remaining activity at 10 µM (MSK2(h); batch_name=ASAP-0008340-001): 92%
- remaining activity at 10 µM (mTOR(h); batch_name=ASAP-0008340-001): 95%
- remaining activity at 10 µM ([1]; batch_name=ASAP-0008340-001): 99%
- remaining activity at 10 µM (Rse(h); batch_name=ASAP-0008340-001): 88%

SMILES: CNCc1cc(-c2cc3c(N[C@@H](c4ccc5c(c4)S(=O)(=O)CCC5)C(C)C)ncnc3[nH]2)co1 [ASAP-0011176]
- remaining activity at 10 µM (Lyn(h); batch_name=ASAP-0011176-002): 47%
- remaining activity at 10 µM (ROCK-I(h); batch_name=ASAP-0011176-002): 102%
- remaining activity at 10 µM (LOK(h); batch_name=ASAP-0011176-002): 92%
- remaining activity at 10 µM (Aurora-A(h); batch_name=ASAP-0011176-002): 73%
- remaining activity at 10 µM (IGF-1R(h); batch_name=ASAP-0011176-002): 99%
- remaining activity at 10 µM (CK1γ1(h); batch_name=ASAP-0011176-002): 99%
- remaining activity at 10 µM (MSK2(h); batch_name=ASAP-0011176-002): 91%
- remaining activity at 10 µM (mTOR(h); batch_name=ASAP-0011176-002): 105%
- remaining activity at 10 µM ([1]; batch_name=ASAP-0011176-002): 80%
- remaining activity at 10 µM (Rse(h); batch_name=ASAP-0011176-002): 81%

SMILES: Cn1ncc(-c2cc3c(N[C@@H](c4ccc5c(n4)OCCO5)C(C)(C)C)ncnc3[nH]2)c1C#N [ASAP-0011221]
- remaining activity at 10 µM (Lyn(h); batch_name=ASAP-0011221-002): 101%
- remaining activity at 10 µM (ROCK-I(h); batch_name=ASAP-0011221-002): 129%
- remaining activity at 10 µM (LOK(h); batch_name=ASAP-0011221-002): 122%
- remaining activity at 10 µM (Aurora-A(h); batch_name=ASAP-0011221-002): 95%
- remaining activity at 10 µM (IGF-1R(h); batch_name=ASAP-0011221-002): 77%
- remaining activity at 10 µM (CK1γ1(h); batch_name=ASAP-0011221-002): 94%
- remaining activity at 10 µM (MSK2(h); batch_name=ASAP-0011221-002): 122%
- remaining activity at 10 µM (mTOR(h); batch_name=ASAP-0011221-002): 105%
- remaining activity at 10 µM ([1]; batch_name=ASAP-0011221-002): 73%
- remaining activity at 10 µM (Rse(h); batch_name=ASAP-0011221-002): 110%

SMILES: C[C@H](C(=O)O)[C@@H](NC(=O)c1ncnc2[nH]ccc12)c1ccc(Br)cc1 [ASAP-0014722]
- remaining activity at 10 µM (Lyn(h); batch_name=ASAP-0014722-002): 94%
- remaining activity at 10 µM (ROCK-I(h); batch_name=ASAP-0014722-002): 90%
- remaining activity at 10 µM (LOK(h); batch_name=ASAP-0014722-002): 97%
- remaining activity at 10 µM (Aurora-A(h); batch_name=ASAP-0014722-002): 72%
- remaining activity at 10 µM (IGF-1R(h); batch_name=ASAP-0014722-002): 95%
- remaining activity at 10 µM (CK1γ1(h); batch_name=ASAP-0014722-002): 92%
- remaining activity at 10 µM (MSK2(h); batch_name=ASAP-0014722-002): 90%
- remaining activity at 10 µM (mTOR(h); batch_name=ASAP-0014722-002): 100%
- remaining activity at 10 µM ([1]; batch_name=ASAP-0014722-002): 97%
- remaining activity at 10 µM (Rse(h); batch_name=ASAP-0014722-002): 87%
